These results are taken from patent US20210038730A1, “PEPTIDE NANOFIBERS” (UNIVERSITY OF PORTSMOUTH HIGHER EDUCATION CORPORATION, priority 2018, published 2021).

The nature of data set [1]: Isoelectric point by acid-base titration. It counts as physicochemical. The procedure:
Both peptides were characterised by electrospray ionisation (positive/negative) mass spectrometry (MS), nuclear magnetic resonance (NMR), RP-HPLC, attenuated total reflectance Fourier-transformed infrared (ATR-FTIR) spectroscopy, thermogravimetric analysis (TGA) and differential scanning calorimetry (DSC). The isoelectric point of the peptides was also determined using an acid-base titration.

The subject of another data set is U-87 MG cells. As to the kind of experiment: Cell cycle (propidium iodide flow cytometry). It counts as cell-based, human. The procedure: In vitro antitumour effects of TPGnRH and PAX-loaded TPGnRH were assessed in U-87 MG cells, UP-007, UP-029, SEBTA-023 MDA-MD-231 [triple negative (ER^−, PR—, HER2^−) breast cancer cell line] and SK-OV-3 (human ovarian carcinoma with a low expression of GnRH-R). Cells were seeded at 1,400 cells/cm^2 and allowed to attach and grow for 3 days. In experiments with TPGnRH nanofibers alone (to obtain the IC50 value in each cell line), cells were treated with medium supplemented with the peptide solutions in PBS (0.7 to 700 μM) to achieve a final concentration of 0.07 to 70 μM per well. Media was replaced by fresh media every two days for 6 days. […] On day 4, PAX-loaded TPGnRH nanofibers containing 1 nM of PAX and 7 or 35 μM of TPGnRH were added and the effect on cell viability, proliferation, cell cycle, and apoptosis was assessed on day 6. Only for the MDA-MB-231 cells, on day 4, PAX-loaded TPGnRH nanofibers containing 10 nM of PAX and 7 or 35 μM of TPGnRH were added and the effect on cell viability, proliferation, cell cycle, and apoptosis was also assessed on day 6. […] Cell metabolic activity was measured using MTT assay. […] Afterwards, dimethyl sulfoxide (100 μL) was added to the wells to dissolve the formazan crystals and the absorbance was measured at 570 and 690 nm. […] Cells were incubated with BrdU for 24 hours before the end of the pre-determined time-points. […]
(In general: In flow cytometry, cells or beads pass a laser one at a time.)

A short description of another data set: in vivo. The note with it: male, BALB/c, mouse, iv, 35 mg/kg.
A short description of a further data set: in vitro. The note with it: human, tissue homogenate.
Data set [2] in a line: Enzymatic stability in rat plasma. The note with it: 50% (v/v) rat plasma.
Method: (§1) Fresh blood, obtained from adult male Wistar rats, was collected in sterile the 170 I.U. lithium heparin-coated tubes (Vacutainer, BD Bioscience, UK). Blood was centrifuged immediately at 2,000 g for 15 minutes (4° C.) and supernatant was collected and diluted to 50% (v/v) with PBS. Livers and brains were obtained from adult male Wistar rats, and the tissues were blotted to dryness, weighed, sliced into pieces, and homogenised with ice-cold PBS (in 2 mL of buffer g^−1 of tissue) using the glass homogeniser. Then, tissue homogenates were centrifuged at 4,300 g for 1 hour (4° C.) and the supernatants collected. Glioblastoma cell homogenates were prepared using U-87 MG cells. Cells were cultured in Eagle's Minimum Essential Medium (EMEM) supplemented with 10% (v/v) heat-inactivated fetal bovine serum (FBS), 1% (v/v) of non-essential amino acids (NEAA) and 1 mM of sodium pyruvate in T75 flasks with a surface area of 75 cm^2 and maintained in a humidified atmosphere of 5% CO2 at 37° C. Breast cancer cell homogenates were prepared using MDA-MB-231 cells. Cells were cultured in Dulbecco's Modified Eagle Medium (DMEM) supplemented with high levels of glucose (4.5 g/L), 10% (v/v) heat-inactivated fetal bovine serum (FBS), 1% (v/v) of non-essential amino acids (NEAA) and penicillin and streptomycin (500 units/mL) in T75 flasks with a surface area of 75 cm^2 and maintained in a humidified atmosphere of 5% CO2 at 37° C. Media was changed for both cell lines every 3 to 4 days. After reaching confluence, cells were washed twice with Hank's Balanced Salt Solution (HBSS) and incubated with ˜2 mL of TrypLE Enzyme at 37° C. for ˜3 minutes. Then, complete media were added, and cells were centrifuged at 1,000 rpm for 5 minutes in C-28A centrifuge (Boeco, Germany). U-87 MG or MDA-MB-231 cells (˜10×10^6 cells mL^−1) were re-suspended in ice-cold PBS, and homogenised with a 2×5 second pulses with the probe sonicator (UP200S Ultrasonic processor, SciMed, 200 watts, amplitude of 60%). Cell debris were removed by centrifugation at 2,000 rpm for 5 minutes (Jouan B4i, Thermo Scientific, Paisley, UK). Supernatant was collected and stored at −80° C. Total protein concentration in the homogenates was determined using the Bradford assay with bovine serum albumin as a standard. Diluted plasma, tissue or cell homogenates were pre-warmed during ˜30 minutes at 37° C. Peptide stock solutions (Glu-GnRH, goserelin acetate and TPGnRH, 5 mM in PBS, 500 μL) were prepared and added to the homogenate solutions (120 μL). […] Samples were vortexed for 15 minutes, centrifuged for 15 minutes at 12,000 rpm, and the supernatants were collected and analysed by RP-HPLC.
Data set [3] is described as follows: Enzymatic stability in rat brain homogenates. As to conditions: 50% (v/v) rat brain homogenates.
Method: as §1

Method for in vitro: Fresh blood, obtained from adult male Wistar rats, was collected in sterile the 170 I.U. lithium heparin-coated tubes (Vacutainer, BD Bioscience, UK). Blood was centrifuged immediately at 2,000 g for 15 minutes (4° C.) and supernatant was collected and diluted to 50% (v/v) with PBS. Livers and brains were obtained from adult male Wistar rats, and the tissues were blotted to dryness, weighed, sliced into pieces, and homogenised with ice-cold PBS (in 2 mL of buffer g^−1 of tissue) using the glass homogeniser. Then, tissue homogenates were centrifuged at 4,300 g for 1 hour (4° C.) and the supernatants collected. Glioblastoma cell homogenates were prepared using U-87 MG cells. Cells were cultured in Eagle's Minimum Essential Medium (EMEM) supplemented with 10% (v/v) heat-inactivated fetal bovine serum (FBS), 1% (v/v) of non-essential amino acids (NEAA) and 1 mM of sodium pyruvate in T75 flasks with a surface area of 75 cm^2 and maintained in a humidified atmosphere of 5% CO2 at 37° C. Breast cancer cell homogenates were prepared using MDA-MB-231 cells. Cells were cultured in Dulbecco's Modified Eagle Medium (DMEM) supplemented with high levels of glucose (4.5 g/L), 10% (v/v) heat-inactivated fetal bovine serum (FBS), 1% (v/v) of non-essential amino acids (NEAA) and penicillin and streptomycin (500 units/mL) in T75 flasks with a surface area of 75 cm^2 and maintained in a humidified atmosphere of 5% CO2 at 37° C. Media was changed for both cell lines every 3 to 4 days. After reaching confluence, cells were washed twice with Hank's Balanced Salt Solution (HBSS) and incubated with ˜2 mL of TrypLE Enzyme at 37° C. for ˜3 minutes. Then, complete media were added, and cells were centrifuged at 1,000 rpm for 5 minutes in C-28A centrifuge (Boeco, Germany). U-87 MG or MDA-MB-231 cells (˜10×10^6 cells mL^−1) were re-suspended in ice-cold PBS, and homogenised with a 2×5 second pulses with the probe sonicator (UP200S Ultrasonic processor, SciMed, 200 watts, amplitude of 60%). Cell debris were removed by centrifugation at 2,000 rpm for 5 minutes (Jouan B4i, Thermo Scientific, Paisley, UK). Supernatant was collected and stored at −80° C. Total protein concentration in the homogenates was determined using the Bradford assay with bovine serum albumin as a standard. Diluted plasma, tissue or cell homogenates were pre-warmed during ˜30 minutes at 37° C. Peptide stock solutions (Glu-GnRH, goserelin acetate and TPGnRH, 5 mM in PBS, 500 μL) were prepared and added to the homogenate solutions (120 μL). PAX-loaded nanofibers prepared at a ratio of 1:7.36 [PAX:TPGnRH consisting of 3 μmol (2.56 mg mL^−1) of PAX, 22.02 μmol (31.46 mg mL^−1) of TPGnRH], as previously described, and further diluted in PBS to achieve a concentration of 5 mM of TPGnRH and 500 nM of PAX (120 μL) were added to the homogenates. At various time intervals, an aliquot was collected (80 μL) and added to ice-cold ACN (80 μL) to quench the enzymatic activity. Samples were stored at −80° C. for at least 3 hours to maximise protein precipitation. Samples were vortexed for 15 minutes, centrifuged for 15 minutes at 12,000 rpm, and the supernatants were collected and analysed by RP-HPLC.
Method for in vivo: At 5 and 60 minutes, mice were killed and the blood and brain were harvested. Blood samples (0.5-0.7 mL per mouse) were collected into evacuated, sterile, spray coated with tripotassium ethylenediamine tetraacetic acid (3.6 mg), medical grade PET tubes. […] Brain was weighted and homogenised with ice-cold PBS (1×, 7.4) using a 3 mL glass homogeniser. Plasma (100 μL) and brain homogenate (˜800 μL) were extracted with equal volumes of ice-cold acetonitrile three times and samples were dried using a centrifugal concentrator (SPD1010 SpeedVac System, ThermoSavant, Renfrewshire, United Kingdom) under vacuum over 2 hours and 4 hours respectively. Samples were orbitally agitated using a SciQuip Microplate Shaker attached to a tube adapter for 1.5-2 mL tubes (10 mm) for 10 minutes prior being centrifuged at 8,000 rpm for 5 minutes. Supernatants were pipetted in 0.2 mL amber vials and was quantified by reverse phase-HPLC. Analysis was conducted on Onyx Monolithic C18 column (4.6 mm×10+100 mm, 5 μm pore size) with a gradient method (Table 13) using an Agilent 1200 Series HPLC system (Agilent Technologies, Cheadle, UK). […] Injection volume was 40 μL, and the detection was performed at 220 nm and 280 nm.

By half-life is commonly meant the time in which the quantity being followed falls by half. Higher therefore signals slow loss. One may read the share remaining as the share of the starting amount still present when the sample was taken. In turn, `CCCCCCCCCCCCCCCC(=O)Oc1ccc(C[C@H](NC(=O)[C@H](CO)NC(=O)[C@H](Cc2c[nH]c3ccccc23)NC(=O)[C@H](Cc2c[nH]cn2)NC(=O)[C@@H](N)CCC(=O)O)C(=O)NCC(=O)N[C@@H](CC(C)C)C(=O)N[C@@H](CCCNC(=N)N)C(=O)N2CCC[C@H]2C(=O)NCC(N)=O)cc1` [TPGnRH, Tyrosine (O-Palmitoyl)-Glu-GnRH] displayed an Isoelectric point in data set [1] of 6.28±0.51. Also, the “effect on cell cycle” value with U-87 MG cells (>7 μM, every two days, 6 days of treatment) was “cell cycle arrest at the G2/M phase”. The “percentage of cells at G2/M” value in the data set with U-87 MG cells (day 6, TPGnRH alone at 35 μM or TPGnRH 4 days then one dose of PAX-loaded TPGnRH) is given as 21.81±3.98%. In “in vivo” (brain), this molecule came in with a tissue level at time at 5 min of 3080 ± 1010 ng/g and a tissue level at time at 1 h of 3470 ± 80 ng/g. In “in vivo” (plasma), this molecule showed a level at 5 min of 545 ± 342 µg/mL and a level at 1 h of 45.6 ± 10.1 µg/mL. The half-life at 4.03 mM in the data set “in vitro” was 51.9 ± 8.73 h. In addition, in data set [2] (analyte in brackets of label), the k was 0.0937 min⁻¹. The fraction remaining at 8 h, 4.03 mM in data set [2] (male, Wistar, rat) is > 80%. The molecule also had a k in data set [3] (analyte in brackets of label) of 0.1781 min⁻¹. In data set [3] (male, Wistar, rat), the fraction remaining at 8 h, 4.03 mM is > 80%.
